What was measured:
HBV [1] = test: AAV mice study: serum HBV DNA copy number by fluorescence quantitative PCR; type: in vivo, C57BL/6 mice; conditions: for HBV DNA (result in words): over a 42-day treatment period, AAV mice; for HBV DNA replication level in mouse serum (treatment period): rAAV8-1.3HBV mice, i.g., ETV 0.0032 (1 W) & 0.001 (2-6 W) mg/kg qd, TLR7 agonist 20 mg/kg tiw
Experimental: Male C57BL/6 mice (Shanghai Slac Laboratory Animal Co., Ltd.) aged 6-8 weeks were taken, and rAAV8-1.3HBV virus (FivePlus Institute of Molecular Medicine, Beijing) was injected into the C57BL/6 mice via tail veins at a dose of 1×10^11 vg. Blood was collected from the orbit at week 2 and week 4 after the virus was injected. Serum was separated, and HBV DNA copy number in serum were measured to determine whether the model was successfully constructed or not. Mice were randomized according to the HBV DNA copy number into vehicle control group, TLR7 agonist group (20 mg/kg, tiw), entecavir (ETV) group (0.0032 (week 1, 1 W) & 0.001 (week 2-6, 2-6 W) mg/kg, qd), and TLR7 agonist and ETV combination group, each group containing 6 mice. The mice in each group were administered intragastrically for 6 weeks, and the administration was stopped for 3 week. Blood was collected from the orbit at weeks 1, 2, 3, 4, 5 and 6 during the administration period and weeks 1, 2 and 3 during the withdrawal period, and serum was separated. The HBV DNA copy number was determined by fluorescence quantitative PCR.
• i. Vehicle control group; • ii. Monotherapy group: entecavir; • iii. Monotherapy group: TLR7 agonist; • iv. Combination group (combo): TLR7 agonist and entecavir;
The test results were evaluated by Jin equation. The Jin equation is a modified method based on the Burgi method, and is also referred to the probability addition method:
The combination efficacy is calculated according to the following equation: q=EA+B/(EA+EB−EA×EB)
wherein EA denotes the efficacy of drug A monotherapy; EB denotes the efficacy of drug B monotherapy; EA+B denotes the efficacy of the combination of drugs A and B.
The significance of q: 0.85 to 1.15 indicates simple addition; 1.15 to 20 indicates enhancement; greater than 20 indicates significant enhancement; 0.85 to 0.55 indicates antagonism; less than 0.55 indicates significant antagonism. The q value takes the absolute value.

HBV [2] = test: Example 2: clinical study of TLR7 agonist combined with entecavir in chronic hepatitis B patients; type: in vivo, human; conditions: TLR7 agonist 1.0-1.8 mg once weekly, entecavir 0.5 mg/day, 24 weeks
Experimental: [drawing 54] (2-butoxy-7-(4-(pyrrolidin-1-ylmethyl) benzyl)-5H-pyrrolo[3,2-d]pyrimidin-4-amine); see WO2016023511 for the preparation method. The compound was prepared into tablets with strength of 0.2 mg or 0.5 mg. • Entecavir: commercially available entecavir tablets with strength of 0.5 mg. Commercially available entecavir tablets include, but are not limited to, entecavir dispersible tablets (Runzhong). • Placebo: a placebo for TLR7 agonist. 2. Enrolled Subjects
The subject should meet all of the following criteria: • 1) Male patients or non-pregnant, non-lactating female patients aged 18-65 years (inclusive); • 2) Serum virology: persistent positive serum HBsAg for 6 months or more, or with evidence of chronic hepatitis B for 6 months; • 3) Previously treated patients: historical HBV DNA inhibition less than the lower limit of normal 24 weeks before enrollment, and HBV DNA inhibition defined as <69 IU/mL determined by a Roche reagent during screening; Fibroscan ≤9.0 Kpa (fasting), and ALT≤5×ULN; • 4) Previously untreated patients: HBV DNA >10^5 copies/mL (or >20000 IU/mL) for HBeAg-positive chronic hepatitis B patients or HBV DNA >10^4 copies/mL (or >2000 IU/mL) for HBeAg-negative patients as determined by Roche's Cobas Taqman real-time quantitative PCR test v2.0, with the lower limit of detection being 20 IU/mL; Fibroscan ≤12.4 Kpa (fasting), and 1×ULN≤ALT≤5×ULN. […] 3. […]

[3] = withdrawal period day 49, after 6 weeks of i.g. administration
[4] = withdrawal period day 56, after 6 weeks of i.g. administration
[5] = withdrawal period day 63, after 6 weeks of i.g. administration

CCCCOc1nc(N)c2[nH]cc(Cc3ccc(CN4CCCC4)cc3)c2n1 [TLR7 agonist, 2-butoxy-7-(4-(pyrrolidin-1-ylmethyl)benzyl)-5H-pyrrolo[3,2-d]pyrimidin-4-amine]
HBV DNA (result in words) (HBV [1]): significantly reduced | HBV DNA replication level in mouse serum (treatment period) (HBV [1]; treatment period day 0): 7.53 ± 0.15 logic lU/mL | HBV DNA replication level in mouse serum (treatment period) (HBV [1]; treatment period day 7): 6.64 ± 1.33 logic lU/mL | HBV DNA replication level in mouse serum (treatment period) (HBV [1]; treatment period day 14): 4.55 ± 1.41 logic lU/mL | HBV DNA replication level in mouse serum (treatment period) (HBV [1]; treatment period day 21): 4.13 ± 0.67 logic lU/mL | HBV DNA replication level in mouse serum (treatment period) (HBV [1]; treatment period day 28): 3.64 ± 0.21 logic lU/mL | HBV DNA replication level in mouse serum (treatment period) (HBV [1]; treatment period day 35): 3.61 ± 0.24 logic lU/mL | HBV DNA replication level in mouse serum (treatment period) (HBV [1]; treatment period day 42): 3.41 ± 0.33 logic lU/mL | HBV DNA replication level in mouse serum (withdrawal period) (HBV [1]; [3]): 4.37 ± 0.48 log10 IU/mL | HBV DNA replication level in mouse serum (withdrawal period) (HBV [1]; [4]): 4.86 ± 0.41 log10 IU/mL | HBV DNA replication level in mouse serum (withdrawal period) (HBV [1]; [5]): 5.26 ± 0.39 log10 IU/mL | HBV DNA replication (result in words) (HBV [2]): achieved inhibition

C=C1[C@H](CO)[C@@H](O)C[C@@H]1n1cnc2c(=O)[nH]c(N)nc21 [entecavir, 2-amino-9-[(1S,3R,4S)-4-hydroxy-3-hydroxymethyl-2-methylenecyclopentyl]-1,9-dihydro-6H-purin-6-one]
HBV DNA (result in words) (HBV [1]): significantly reduced | HBV DNA replication level in mouse serum (treatment period) (HBV [1]; treatment period day 0): 7.53 ± 0.15 logic lU/mL | HBV DNA replication level in mouse serum (treatment period) (HBV [1]; treatment period day 7): 5.27 ± 0.18 logic lU/mL | HBV DNA replication level in mouse serum (treatment period) (HBV [1]; treatment period day 14): 5.66 ± 0.14 logic lU/mL | HBV DNA replication level in mouse serum (treatment period) (HBV [1]; treatment period day 21): 5.96 ± 0.28 logic lU/mL | HBV DNA replication level in mouse serum (treatment period) (HBV [1]; treatment period day 28): 5.34 ± 0.43 logic lU/mL | HBV DNA replication level in mouse serum (treatment period) (HBV [1]; treatment period day 35): 5.62 ± 0.36 logic lU/mL | HBV DNA replication level in mouse serum (treatment period) (HBV [1]; treatment period day 42): 6.44 ± 0.46 logic lU/mL | HBV DNA replication level in mouse serum (withdrawal period) (HBV [1]; [3]): 6.97 ± 0.72 log10 IU/mL | HBV DNA replication level in mouse serum (withdrawal period) (HBV [1]; [4]): 7.32 ± 0.73 log10 IU/mL | HBV DNA replication level in mouse serum (withdrawal period) (HBV [1]; [5]): 7.33 ± 0.80 log10 IU/mL | HBV DNA replication (result in words) (HBV [2]): inhibitory effects
